Results taken from publication PMC11079029, “Intramolecular autoinhibition regulates the selectivity of PRPF40A tandem WW domains for proline-rich motifs” (Nature Communications, 2024).
Where two headings read alike, the source gives them in different places. No end group written: not given here.

Biological target: T1, PRPF40A WW12 (tandem WW domains, residues 141–236) (Homo sapiens, UniProt O75400)
T1 construct: WW12 141–236, WW12long 141–248, and N-ext-WW12 56–236; 6xHis-TEV site (N, cleaved yes); made in house; host or cells: Escherichia coli BL21(DE3)
Assay: ITC of PRPF40A WW12 with GB1-tagged proline-rich peptides and constructs
Format: binding
Conditions: for N (sites): ITC as E1, peptide in the cell, N >1 = more than one WW tandem per peptide; for DH: ITC binding enthalpy; for Kd: ITC
Excerpt: PRPF40A isoform 1 sequences (N-ter 1–310, WW12short 141–223, WW12 141–236, WW12long 141–248, and N-ext-WW12 56–236) were amplified from a purchased DNA fragment (IDT) and cloned using NcoI and KpnI restriction sites into a pETM11 vector encoding 6xHis and TEV cleavage site as a N-terminal tag. SF1 (Pro A 410–468, Pro B 468–539, Pro C 539–594, Pro D 594–639, Pro BC 468–594, Pro CD 539–639, Pro BCD 468–639 and Pro ABCD 410–639) and SF3A1 (Middle Pro 364–413 and C-ter Pro 552–683) constructs were prepared in a similar manner using a pET24 vector with a 6xHis, GB1 and TEV cleavage site as N-terminal fusion cassette. 16-mer SF1 constructs (Table 1) and polyproline peptides (P6, P8, P10, P13, P16, P19, P22, P25, and P29) were cloned in the same pET24 vector with GB1 tag by direct ligation of purchased oligonucleotides (Eurofins). All peptide sequences contained N and C-terminal common residues to avoid boundary effects on binding: TEVsite-GAMSGS-peptide-SGSN. Mutants of PRPF40A WW12 and N-ext-WW12 constructs were prepared by site-directed mutagenesis. The truncated version of PRPF40A WW12 (141-217) was a gift from Dr. María Macías (IRB, Spain). All used oligonucleotides were purchased from Eurofins Genomics and are shown in Supplementary Table 6.
Resuspended cell pellets in 20 mM Tris pH 8.0, 500 mM NaCl, 10 mM imidazole, 0.5 mM TCEP, and protease inhibitors mix (SERVA) were lysed by cell disruption in a French press. Clear lysates, after centrifugation (at 18,000 g) and filtering, were loaded into Ni-NTA resin. The resin was then washed with 20 mM imidazole containing buffer, and the desired protein was eluted with 500 mM imidazole. PRPF40A constructs were then subjected to TEV protease treatment (homemade at a final concentration of ≈50 μg/ml), dialyzed overnight at 4 °C against an imidazole-free buffer, and then loaded again to Ni-NTA resin; desired digested proteins were obtained in the flow-through and wash fractions while uncleaved protein, TEV protease, and impurities remained bound to the resin. Cleaved PRPF40A proteins and GB1-tagged SF1, SF3A1, and polyproline constructs were further purified by size-exclusion chromatography on a HiLoad 16/60 Superdex 75 column (GE Healthcare) equilibrated with 20 mM sodium phosphate, pH 6.5, 100 mM NaCl and 1 mM DTT buffer. For the purification of PRPF40A WW12 in complex with SF1 peptide, cell pellets of recombinant expression for both proteins were mixed and processed together following the Ni-NTA—TEV digestion—reverse Ni-NTA—SEC-75 protocol; where the complex remained bound in a 1:1 stoichiometry throughout the whole purification (corroborated by NMR). Molecular weight of each sample was confirmed by mass spectrometry, purity was checked by PAGE-SDS, and protein concentrations were determined from the aromatic contribution to the UV absorbance spectra at 280 nm.
Experiments were conducted on a MicroCAl PEAQ-ITC (Malvern Instruments, UK) at 25 °C in 20 mM sodium phosphate pH 6.5 and 100 mM NaCl. PRPF40A was titrated into N-terminal GB1 tagged SF1 or polyproline constructs and vice versa with similar results. Protein concentrations in the cell were around 20–40 μM, while in the syringe ranged between 200 and 500 μM. Experiments were performed at least in duplicate with injections of 1.5 μL (0.4 μL for first point) separated by 150 s delays to recover thermal power baseline and continuous stirring in the cell (750 rpm) for correct mixing. The reference cell was filled with water in all experiments. Data were processed by removing the blank experiment (using digested GB1 fusion protein) and adjusted to one-site binding model with Malvern PEAQ-ITC Analysis software (Malvern Instruments, UK).

[1] = 25 °C, 20 mM sodium phosphate pH 6.5, 100 mM NaCl, GB1-tagged polyproline or SF1 16-mer peptide in the cell, WW tandem in the syringe, one-site model, apparent Kd, average of at least duplicates, read-out: Kd
[2] = SF1 peptides, individual value 1 (replicate 1), read-out: Kd Values with WW12, individual value
[3] = SF1 peptides, individual value 2 (replicate 2), read-out: Kd Values with WW12, individual value
[4] = SF1 peptides, individual value 3 (replicate 3), read-out: Kd Values with WW12, individual value

T1 sequence (O75400 141-236): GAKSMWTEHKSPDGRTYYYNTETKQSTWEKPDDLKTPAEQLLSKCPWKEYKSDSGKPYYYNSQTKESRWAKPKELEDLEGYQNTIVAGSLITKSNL

Row | Substance | N (sites) (WW tandem in the syringe) | DH (as E1) [kcal/mol] | Kd [1] [µM] | Kd [2] [µM] | Kd [3] [µM] | Kd [4] [µM] | DH (as E4) [kcal/mol]
1 | MPPFGMPPAPPPPPPQ [SF1_623–638, GB1-tagged 16-mer from the SF1 C-terminal region] | 0.95 ± 0.10 | -10.7 ± 3.54 | 23.3 ± 13.3 | 21.8 | 24.8 | – | –
2 | MPPPPPPPSGQPPPPP [SF1_478–493, GB1-tagged 16-mer from the SF1 C-terminal region] | 0.80 ± 0.11 | -14.3 ± 0.956 | 9.59 ± 0.9 | 8.26 | 10.3 | 10.2 | –
3 | MQPPPPPMNQGPHPPG [SF1_425–440, GB1-tagged 16-mer from the SF1 C-terminal region] | 0.87 ± 0.07 | -13.3 ± 1.41 | 20.2 ± 3.1 | 15.9 | 21.8 | 22.9 | –
4 | MYAPPPPPPPPMDPSN [SF1_596–611, GB1-tagged 16-mer from the SF1 C-terminal region] | 1.10 ± 0.30 | -10.9 ± 8.8 | 65.9 ± 50.7 | – | – | – | –
5 | P10: recombinant GB1-tagged polyproline peptide, 10 prolines (GB1-GAMSGSPPPPPPPPPPSGSN; not fully specified) | 0.89 ± 0.11 | -9.63 ± 1.24 | – | – | – | – | –
6 | P13: recombinant GB1-tagged polyproline peptide, 13 prolines (GB1-GAMSGSPPPPPPPPPPPPPSGSN; not fully specified) | 0.78 ± 0.07 | -15.7 ± 1.54 | – | – | – | – | –
7 | P16: recombinant GB1-tagged polyproline peptide, 16 consecutive proline residues (GB1-GAMSGSPPPPPPPPPPPPPPPPSGSN; also: His6 tag state not given here) | 0.88 ± 0.08 | -15.2 ± 0.621 | – | – | – | – | –
8 | P19: recombinant GB1-tagged polyproline peptide, 19 prolines (GB1-GAMSGSPPPPPPPPPPPPPPPPPPPSGSN; also: His6 tag state not given here) | 1.10 ± 0.04 | -18.2 ± 0.837 | – | – | – | – | –
9 | P22: recombinant GB1-tagged polyproline peptide, 22 prolines (GB1-GAMSGSPPPPPPPPPPPPPPPPPPPPPPSGSN; also: His6 tag state not given here) | 1.39 ± 0.03 | -18.6 ± 0.574 | – | – | – | – | –
10 | P25: recombinant GB1-tagged polyproline peptide, 25 prolines (GB1-GAMSGSPPPPPPPPPPPPPPPPPPPPPPPPPSGSN; also: His6 tag state not given here) | 2.30 ± 0.09 | -16.6 ± 0.645 | – | – | – | – | –
11 | P29: recombinant GB1-tagged polyproline peptide, 29 prolines (GB1-GAMSGSPPPPPPPPPPPPPPPPPPPPPPPPPPPPPSGSN; also: His6 tag state not given here) | 2.47 ± 0.09 | -15.8 ± 0.502 | – | – | – | – | –
12 | SF1 Pro A: GB1-tagged SF1 construct, residues 410–468 (GB1-GHPMQHNPNGPPPPWMQPPPPPMNQGPHPPGHHGPPPMDQYLGSTPVGSGVYRLHQGKG; also: His6 tag state not given here) | – | – | – | – | – | – | -15.1 ± 3.54
13 | SF1 Pro C: GB1-tagged SF1 construct, residues 539–594, contains the WWbs 16-mer (GB1-GSIPPWQQQQAAAAASPGAPQMQGNPTMVPLPPGVQPPLPPGAPPPPPPPPPGSAG; also: His6 tag state not given here) | – | – | – | – | – | – | -20.6 ± 0.22
14 | SF1 Pro D: GB1-tagged SF1 construct, residues 594–639 (GB1-GMMYAPPPPPPPPMDPSNFVTMMGMGVAGMPPFGMPPAPPPPPPQN; also: His6 tag state not given here) | – | – | – | – | – | – | -16 ± 4.52
